Results: ChEMBL document CHEMBL4145521, “Regioselective synthesis of 3,4-diaryl-5-unsubstituted isoxazoles, analogues of natural cytostatic combretastatin A4” (Eur J Med Chem, 2018)

Key:
Type in all cases: functional
CCRF-CEM = test: Cytotoxicity against human CCRF-CEM cells assessed as cell growth at 0.01 uM incubated for 48 hrs by sulforhodamine B assay relative to control; details: read-out: Activity
CAKI-1 [1] = test: Cytotoxicity against human Caki1 cells assessed as cell growth at 1 uM incubated for 48 hrs by sulforhodamine B assay relative to control; details: CAKI-1, 48 h, read-out: Activity
RXF 393 = test: Cytotoxicity against human RXF393 cells assessed as cell growth at 10 uM incubated for 48 hrs by sulforhodamine B assay relative to control; details: RXF 393, 48 h, read-out: Activity
LOX IMVI = test: Cytotoxicity against human LOXIMVI cells assessed as cell growth at 1 uM incubated for 48 hrs by sulforhodamine B assay relative to control; details: read-out: Activity
A498 [2] = test: Cytotoxicity against human A498 cells assessed as cell growth at 1 uM incubated for 48 hrs by sulforhodamine B assay relative to control; details: A498, 48 h, read-out: Activity
NCI-H23 [3] = test: Cytotoxicity against human NCI-H23 cells assessed as cell growth at 0.01 uM incubated for 48 hrs by sulforhodamine B assay relative to control; details: NCI-H23, 48 h, read-out: Activity
HCT-116 = test: Cytotoxicity against human HCT116 cells assessed as cell growth at 10 uM incubated for 48 hrs by sulforhodamine B assay relative to control; details: HCT-116, 48 h, read-out: Activity
RPMI-8226 = test: Cytotoxicity against human RPMI8226 cells assessed as cell growth at 0.01 uM incubated for 48 hrs by sulforhodamine B assay relative to control; details: RPMI-8226, 48 h, read-out: Activity
NCI-H23 [4] = test: Cytotoxicity against human NCI-H23 cells incubated for 48 hrs by sulforhodamine B assay; details: NCI-H23, 48 h
A498 [5] = test: Cytotoxicity against human A498 cells assessed as cell growth at 10 uM incubated for 48 hrs by sulforhodamine B assay relative to control; details: A498, 48 h, read-out: Activity
K562 = test: Cytotoxicity against human K562 cells assessed as cell growth at 100 uM incubated for 48 hrs by sulforhodamine B assay relative to control; details: K562, 48 h, read-out: Activity
NCI-H322M = test: Cytotoxicity against human NCI-H322M cells assessed as cell growth at 10 uM incubated for 48 hrs by sulforhodamine B assay relative to control; details: read-out: Activity
MCF7 = test: Cytotoxicity against human MCF7 cells assessed as cell growth at 0.01 uM incubated for 48 hrs by sulforhodamine B assay relative to control; details: MCF7, 48 h, read-out: Activity
HCT-15 = test: Cytotoxicity against human HCT15 cells assessed as cell growth at 0.1 uM incubated for 48 hrs by sulforhodamine B assay relative to control; details: HCT-15, 48 h, read-out: Activity
TK-10 [6] = test: Cytotoxicity against human TK10 cells assessed as cell growth at 1 uM incubated for 48 hrs by sulforhodamine B assay relative to control; details: TK-10, 48 h, read-out: Activity
NCI-H522 [7] = test: Cytotoxicity against human NCI-H522 cells assessed as cell growth at 1 uM incubated for 48 hrs by sulforhodamine B assay relative to control; details: NCI-H522, 48 h, read-out: Activity
SF-268 = test: Cytotoxicity against human SF268 cells incubated for 48 hrs by sulforhodamine B assay; details: SF-268, 48 h
COLO 205 = test: Cytotoxicity against human COLO205 cells assessed as cell growth at 10 uM incubated for 48 hrs by sulforhodamine B assay relative to control; details: COLO 205, 48 h, read-out: Activity
Hs-578T = test: Cytotoxicity against human Hs 578T cells incubated for 48 hrs by sulforhodamine B assay
NCI-H522 [8] = test: Cytotoxicity against human NCI-H522 cells assessed as cell growth at 100 uM incubated for 48 hrs by sulforhodamine B assay relative to control; details: NCI-H522, 48 h, read-out: Activity
OVCAR-8 = test: Cytotoxicity against human OVCAR8 cells assessed as cell growth at 10 uM incubated for 48 hrs by sulforhodamine B assay relative to control; details: OVCAR-8, 48 h, read-out: Activity
MDA-MB-435 = test: Cytotoxicity against human MDA-MB-435 cells assessed as cell growth at 100 uM incubated for 48 hrs by sulforhodamine B assay relative to control; details: MDA-MB-435, 48 h, read-out: Activity
SW-620 = test: Cytotoxicity against human SW620 cells assessed as cell growth at 1 uM incubated for 48 hrs by sulforhodamine B assay relative to control; details: SW-620, 48 h, read-out: Activity
KM12 = test: Cytotoxicity against human KM12 cells assessed as cell growth at 1 uM incubated for 48 hrs by sulforhodamine B assay relative to control; details: KM12, 48 h, read-out: Activity
TK-10 [9] = test: Cytotoxicity against human TK10 cells assessed as cell growth at 0.01 uM incubated for 48 hrs by sulforhodamine B assay relative to control; details: TK-10, 48 h, read-out: Activity
CAKI-1 [10] = test: Cytotoxicity against human Caki1 cells assessed as cell growth at 0.01 uM incubated for 48 hrs by sulforhodamine B assay relative to control; details: CAKI-1, 48 h, read-out: Activity
HT-29 = test: Cytotoxicity against human HT-29 cells assessed as cell growth at 10 uM incubated for 48 hrs by sulforhodamine B assay relative to control; details: HT-29, 48 h, read-out: Activity
NCI-H23 [11] = test: Cytotoxicity against human NCI-H23 cells assessed as cell growth at 100 uM incubated for 48 hrs by sulforhodamine B assay relative to control; details: NCI-H23, 48 h, read-out: Activity
OVCAR-3 = test: Cytotoxicity against human OVCAR3 cells incubated for 48 hrs by sulforhodamine B assay; details: OVCAR-3, 48 h
SNB-19 = test: Cytotoxicity against human SNB19 cells assessed as cell growth at 0.01 uM incubated for 48 hrs by sulforhodamine B assay relative to control; details: SNB-19, 48 h, read-out: Activity
HCC 2998 = test: Cytotoxicity against human HCC2998 cells assessed as cell growth at 0.01 uM incubated for 48 hrs by sulforhodamine B assay relative to control; details: HCC 2998, 48 h, read-out: Activity
EKVX = test: Cytotoxicity against human EKVX cells incubated for 48 hrs by sulforhodamine B assay
[12] = read-out: LC50 (the source's name)
[13] = read-out: pLC50 (the source's name) (converted)

COc1ccc(-c2nocc2-c2cc(OC)c(OC)c(OC)c2)cc1
growth at 0.01 µM (CCRF-CEM): 111%
growth at 1 µM (CAKI-1 [1]): 47%
growth at 10 µM (RXF 393): 1%
growth at 1 µM (LOX IMVI): 43%
growth at 1 µM (A498 [2]): -3%
growth at 0.01 µM (NCI-H23 [3]): 94%
growth at 10 µM (HCT-116): 6%
growth at 0.01 µM (RPMI-8226): 100%
GI50 (NCI-H23 [4]; read-out: GI50): 283 nM
CC50 (NCI-H23 [4]; [12]): > 100000 nM
TGI (NCI-H23 [4]; read-out: TGI): 74900 nM
GI50 (NCI-H23 [4]; read-out: pGI50 (converted)): 282 nM
CC50 (NCI-H23 [4]; [13]): > 100000 nM
TGI (NCI-H23 [4]; read-out: pTGI (converted)): 74100 nM
growth at 10 µM (A498 [5]): -13%
growth at 100 µM (K562): 4%
growth at 10 µM (NCI-H322M): 35%
growth at 0.01 µM (MCF7): 86%
growth at 0.1 µM (HCT-15): 29%
growth at 1 µM (TK-10 [6]): 21%
growth at 1 µM (NCI-H522 [7]): -39%
GI50 (SF-268; read-out: GI50): 549 nM
LC50 (SF-268; read-out: LC50): > 100000 nM
TGI (SF-268; read-out: TGI): > 100000 nM
GI50 (SF-268; read-out: pGI50 (converted)): 550 nM
LC50 (SF-268; read-out: pLC50 (converted)): > 100000 nM
TGI (SF-268; read-out: pTGI): > 100000 nM
growth at 10 µM (COLO 205): -27%
GI50 (Hs-578T; read-out: GI50): 396 nM
CC50 (Hs-578T; [12]): > 100000 nM
TGI (Hs-578T; read-out: TGI): > 100000 nM
GI50 (Hs-578T; read-out: pGI50 (converted)): 398 nM
CC50 (Hs-578T; [13]): > 100000 nM
TGI (Hs-578T; read-out: pTGI): > 100000 nM
growth at 100 µM (NCI-H522 [8]): -48%
growth at 10 µM (OVCAR-8): 25%
growth at 100 µM (MDA-MB-435): -9%
growth at 1 µM (SW-620): 21%
growth at 1 µM (KM12): 20%
growth at 0.01 µM (TK-10 [9]): 90%
growth at 0.01 µM (CAKI-1 [10]): 90%
growth at 10 µM (HT-29): 3%
growth at 100 µM (NCI-H23 [11]): -3%
GI50 (OVCAR-3; read-out: GI50): 38.6 nM
LC50 (50% lethal concentration) (OVCAR-3; read-out: LC50): > 100000 nM
TGI (OVCAR-3; read-out: TGI): 1320 nM
GI50 (OVCAR-3; read-out: pGI50 (converted)): 38.9 nM
LC50 (50% lethal concentration) (OVCAR-3; read-out: pLC50 (converted)): > 100000 nM
TGI (OVCAR-3; read-out: pTGI (converted)): 1320 nM
growth at 0.01 µM (SNB-19): 98%
growth at 0.01 µM (HCC 2998): 97%
GI50 (EKVX; read-out: GI50): 96 nM
CC50 (EKVX; [12]): > 100000 nM
TGI (EKVX; read-out: TGI): > 100000 nM
GI50 (EKVX; read-out: pGI50 (converted)): 95.5 nM
CC50 (EKVX; [13]): > 100000 nM
TGI (EKVX; read-out: pTGI): > 100000 nM
